Test results as given in PubChem BioAssay (NCI).
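Tested at 5 concentrations; 48 h exposure; 96-well plates; endpoints linearly interpolated, else capped at highest concentration. GI50 is the concentration that inhibits growth by half. At the TGI there is no net growth.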

What was measured:
Experiment in all cases: DTP human tumour cell line panel, 48 h
[1] = system: SK-OV-3 ovarian
[2] = system: U251 CNS
[3] = system: 786-0 renal
[4] = system: A498 renal
[5] = system: A549 NSCLC
[6] = system: ACHN renal
[7] = system: CAKI-1 renal
[8] = system: CCRF-CEM leukemia
[9] = system: COLO 205 colon
[10] = system: DU-145 prostate
[11] = system: HCC-2998 colon
[12] = system: HCT-116 colon
[13] = system: HCT-15 colon
[14] = system: HL-60(TB) leukemia
[15] = system: HOP-62 NSCLC
[16] = system: HOP-92 NSCLC
[17] = system: HS 578T breast
[18] = system: HT29 colon
[19] = system: IGROV1 ovarian
[20] = system: K-562 leukemia
[21] = system: KM12 colon
[22] = system: LOX IMVI melanoma
[23] = system: M14 melanoma
[24] = system: MALME-3M melanoma
[25] = system: MCF7 breast
[26] = system: MDA-MB-231 breast
[27] = system: MDA-MB-435
[28] = system: MOLT-4 leukemia
[29] = system: NCI-H226 lung
[30] = system: NCI-H23 lung
[31] = system: NCI-H460 lung
[32] = system: NCI/ADR-RES ovarian
[33] = system: OVCAR-3 ovarian
[34] = system: OVCAR-4 ovarian
[35] = system: OVCAR-5 ovarian
[36] = system: OVCAR-8 ovarian
[37] = system: PC-3 prostate
[38] = system: RPMI-8226 leukemia
[39] = system: SF-268 CNS
[40] = system: SF-295 CNS
[41] = system: SF-539 CNS
[42] = system: SK-MEL-2 melanoma
[43] = system: SK-MEL-28 melanoma
[44] = system: SK-MEL-5 melanoma
[45] = system: SN12C renal
[46] = system: SNB-19 CNS
[47] = system: SNB-75 CNS
[48] = system: SR leukemia
[49] = system: SW-620 colon
[50] = system: T-47D breast
[51] = system: TK-10 renal
[52] = system: UACC-257 melanoma
[53] = system: UACC-62 melanoma
[54] = system: UO-31 renal
[55] = system: BT-549 breast
[56] = system: EKVX NSCLC
[57] = system: NCI-H522 lung
[58] = system: RXF 393 renal

## CC(C)(C)[Si](C)(C)OCCC1CC2(S(=O)(=O)C3=CC=C=C=C3)ON1CC2S(=O)(=O)c1ccccc1 (configuration not stated)
[1]
  TGI: > 100000 nM
[2]
  TGI: > 100000 nM

## O=C(Nc1cc(C(F)(F)F)cc(C(F)(F)F)c1)Nc1ccc(OCc2nnc(-c3ccc(Cl)cc3)o2)c(F)c1
[3]
  GI50: 2000 nM
  TGI: 4680 nM
[4]
  GI50: 1910 nM
  TGI: 6500 nM
[5]
  GI50: 1970 nM
  TGI: 9440 nM
[6]
  GI50: 873 nM
  TGI: 9200 nM
[7]
  GI50: 2720 nM
  TGI: 15800 nM
[8]
  GI50: 1880 nM
  TGI: 11300 nM
[9]
  GI50: 1640 nM
  TGI: 3150 nM
[10]
  GI50: 3580 nM
  TGI: 15200 nM
[11]
  GI50: 3120 nM
  TGI: 12000 nM
[12]
  GI50: 802 nM
  TGI: 3020 nM
[13]
  GI50: 1990 nM
  TGI: 14000 nM
[14]
  GI50: 2850 nM
  TGI: 8210 nM
[15]
  GI50: 2110 nM
  TGI: 6120 nM
[16]
  GI50: 1140 nM
  TGI: 4060 nM
[17]
  GI50: 2380 nM
  TGI: 12100 nM
[18]
  GI50: 2700 nM
  TGI: 10300 nM
[19]
  GI50: 3750 nM
  TGI: 39200 nM
[20]
  GI50: 2370 nM
  TGI: 24300 nM
[21]
  GI50: 1000 nM
  TGI: 5720 nM
[22]
  GI50: 2070 nM
  TGI: 5310 nM
[23]
  GI50: 2720 nM
  TGI: 11100 nM
[24]
  GI50: 2300 nM
  TGI: 6270 nM
[25]
  GI50: 1790 nM
  TGI: 8470 nM
[26]
  GI50: 1990 nM
  TGI: 4930 nM
[27]
  GI50: 2600 nM
  TGI: 9780 nM
[28]
  GI50: 2720 nM
  TGI: 12000 nM
[29]
  GI50: 2930 nM
  TGI: 12500 nM
[30]
  GI50: 1880 nM
  TGI: 6260 nM
[31]
  GI50: 2000 nM
  TGI: 7650 nM
[32]
  GI50: 1850 nM
  TGI: 7910 nM
[33]
  GI50: 1080 nM
  TGI: 3920 nM
[34]
  GI50: 2310 nM
  TGI: 10000 nM
[35]
  GI50: 2760 nM
  TGI: 13700 nM
[36]
  GI50: 1600 nM
  TGI: 5730 nM
[37]
  GI50: 668 nM
  TGI: 11200 nM
[38]
  GI50: 1020 nM
  TGI: 5300 nM
[39]
  GI50: 4080 nM
  TGI: 21000 nM
[40]
  GI50: 1140 nM
  TGI: 6910 nM
[41]
  GI50: 2830 nM
  TGI: 8470 nM
[42]
  GI50: 2730 nM
  TGI: 6260 nM
[43]
  GI50: 3300 nM
  TGI: 15100 nM
[44]
  GI50: 1510 nM
  TGI: 2960 nM
[1]
  GI50: 2690 nM
  TGI: 9510 nM
[45]
  GI50: 2610 nM
  TGI: 15700 nM
[46]
  GI50: 3100 nM
  TGI: 25100 nM
[47]
  GI50: 1320 nM
  TGI: 5370 nM
[48]
  GI50: 2380 nM
  TGI: 10000 nM
[49]
  GI50: 2660 nM
  TGI: 12300 nM
[50]
  GI50: 1850 nM
  TGI: 8040 nM
[51]
  GI50: 4390 nM
  TGI: 33900 nM
[2]
  GI50: 1490 nM
  TGI: 3240 nM
[52]
  GI50: 1620 nM
  TGI: 5010 nM
[53]
  GI50: 1790 nM
  TGI: 11600 nM
[54]
  GI50: 1860 nM
  TGI: 8750 nM

## CCOc1ccc2c(c1)C(=O)c1c-2n(CCCN)c(=O)c2cc([N+](=O)[O-])ccc12
[3]
  GI50: 29.1 nM
  TGI: 214 nM
[4]
  GI50: 679 nM
  TGI: 2060 nM
[5]
  GI50: 137 nM
  TGI: 1130 nM
[6]
  GI50: 10.1 nM
  TGI: 1170 nM
[55]
  GI50: 473 nM
  TGI: 1620 nM
[7]
  GI50: 11.2 nM
  TGI: 1140 nM
[8]
  GI50: < 10 nM
  TGI: 20.8 nM
[9]
  GI50: 361 nM
  TGI: 2110 nM
[10]
  GI50: < 10.7 nM
  TGI: 213 nM
[56]
  GI50: 1190 nM
  TGI: 2570 nM
[11]
  GI50: 183 nM
  TGI: 1400 nM
[12]
  GI50: 63.8 nM
  TGI: 543 nM
[13]
  GI50: 209 nM
  TGI: 1240 nM
[14]
  GI50: 314 nM
  TGI: 2400 nM
[15]
  GI50: < 10.8 nM
  TGI: 1220 nM
[16]
  GI50: 96.9 nM
  TGI: 1910 nM
[17]
  GI50: 1930 nM
  TGI: 4040 nM
[18]
  GI50: 126 nM
  TGI: 1120 nM
[21]
  GI50: 532 nM
  TGI: 2100 nM
[22]
  GI50: 14.4 nM
  TGI: 1150 nM
[23]
  GI50: 34.3 nM
  TGI: 1190 nM
[24]
  GI50: 574 nM
  TGI: 2370 nM
[25]
  GI50: < 10 nM
  TGI: 271 nM
[26]
  GI50: 1810 nM
  TGI: 3430 nM
[27]
  GI50: 294 nM
  TGI: 1950 nM
[29]
  GI50: 1220 nM
  TGI: 3260 nM
[30]
  GI50: 42.5 nM
  TGI: 473 nM
[57]
  GI50: 13.4 nM
  TGI: 1520 nM
[32]
  GI50: 55.8 nM
  TGI: 1820 nM
[33]
  GI50: 448 nM
  TGI: 1750 nM
[34]
  GI50: 527 nM
  TGI: 2180 nM
[35]
  GI50: 324 nM
  TGI: 1820 nM
[36]
  GI50: 16.8 nM
  TGI: 147 nM
[37]
  GI50: 297 nM
  TGI: 2140 nM
[38]
  GI50: 44.3 nM
  TGI: 302 nM
[58]
  GI50: 499 nM
  TGI: 1960 nM
[39]
  GI50: 11.5 nM
  TGI: 1060 nM
[40]
  GI50: 14.6 nM
  TGI: 1190 nM
[41]
  GI50: 51.7 nM
  TGI: 209 nM
[42]
  GI50: 1530 nM
  TGI: 3270 nM
[43]
  GI50: 1370 nM
  TGI: 2890 nM
[44]
  GI50: 77.1 nM
  TGI: 417 nM
[45]
  GI50: 66.7 nM
  TGI: 1930 nM
[46]
  GI50: 34.6 nM
  TGI: 1480 nM
[48]
  GI50: < 10 nM
  TGI: 2170 nM
[49]
  GI50: 51.6 nM
  TGI: 1360 nM
[51]
  GI50: 1270 nM
  TGI: 2780 nM
[2]
  GI50: 10.3 nM
  TGI: 1220 nM
[52]
  GI50: 1190 nM
  TGI: 2440 nM
[53]
  GI50: 76.8 nM
  TGI: 1820 nM
[54]
  GI50: < 10 nM
  TGI: 205 nM
